Results on three compounds are retold here after patent US12226441B2, “Composition for inhibiting intestinal permeability, treating leaky gut related diseases and/or preventing leaky gut related diseases” (priority 2020, dated 2025).

For one experiment, the system named is DSS-induced mice. Kind of experiment: dextran sulfate sodium salt (DSS) induced abnormal intestinal permeability animal model, serum FITC-dextran. The settings on record: positive control, 0.5% (v/v) DSS, 200 μM, 14 days, vs negative control. It is filed as in vivo, C57BL/6 male mice. How it is done:
The animals used in this experiment were 5-6 week old C57BL/6 male mice (purchased from the National Laboratory Animal Center).
The experiment was performed by an animal model of dextran sulfate sodium salt (DSS) induced abnormal intestinal permeability (Laroui H, Ingersoll S A, Liu H C, Baker M T, Ayyadurai S, et al. (2012) Dextran Sodium Sulfate (DSS) Induces Colitis in Mice by Forming Nano-Lipocomplexes with Medium-Chain-Length Fatty Acids in the Colon. PLOS ONE 7(3): e32084. doi:10.1371/journal.pone.0032084).
The mice were divided into an untreated group (Naive), a negative control group (vehicle: water), a positive control group (5-aminosalicylic acid (5-ASA)) and 3 experiments groups (Sample 15B (Ganoderma extract+red jujube extract+lotus seed extract+lotus seed extract (the weight ratio of the respective herbal raw materials used to obtain the respective extracts is 3:1:1:1))). The mice in the untreated group were not treated in any way. […]
The FITC-dextran content in mouse serum was measured with a multifunctional microplate spectrometer (Molecular Device, FlexStation® 3) as an indicator of intestinal permeability.

In a further experiment the test system is CLDN3. Kind of experiment: real-time quantitative PCR of tight junction gene expression in rhamnolipid-induced Caco-2 cells. It is filed as cell-based, human. To be noted: positive control, 50 μM (18.6 μg/mL), rhamnolipid-induced Caco-2, vs negative control. From the text: (§1) Total ribonucleic acid (total RNA) of cells was isolated by Total RNA Purification Kit (GeneMark, Taichung, Taiwan). Using Maxima First Strand cDNA Synthesis Kit (Thermo Fisher Scientific), according to the manufacturer's operating procedures, the obtained total ribonucleic acid subjected to a reverse transcription polymerase chain reaction to reverse-transcript messenger ribonucleic acid (mRNA) into cDNA. Next, the cDNA samples were subjected to a real-time quantitative polymerase chain reaction to determine the expression levels of CLDN3, OCLN and TJP1 mRNA.

The next experiment has as its system OCLN. The description is as above. It is filed as cell-based, human. The settings on record: positive control, 50 μM (18.6 μg/mL), rhamnolipid-induced Caco-2, vs negative control.
Description: as §1

Another experiment has as its system TJP1. The description is as above. It is filed as cell-based, human. The settings on record: positive control, 50 μM (18.6 μg/mL), rhamnolipid-induced Caco-2, vs negative control.
Description: as §1

The test system of experiment [1] is mice with circadian disruption. Kind of experiment: circadian disruption (insomnia) animal model, brainwave sleep cycle parameters. The experiment is classed as in vivo, C57BL/6 male mice. The settings on record: positive control, light-dark cycle 7 hours:7 hours, 2.5 mg/kg orally, Day 4, vs negative control.
Description: The animals used in this experiment were 8-week-old C57BL/6 male mice (purchased from the National Laboratory Animal Center).
The mice were subjected to a surgical operation to load electrodes on the skull to record brain waves. After a 7-day recovery period, the mice were reared for 2 weeks under a normal light-dark cycle of 12 hours: 12 hours, and the 24-hour brainwave changes of the mice were recorded as the basic point.
During the feeding, the mice in the negative control group were given the same amount of sterile water, mice in the positive control group were given diazepam (2.5 mg/kg orally), and mice in the experimental group were given 200 mg/kg Sample 15B.
The 24-hour brainwave changes of mice were recorded on Day 4 after the circadian disruption to analyze sleep cycle parameters of the time proportions (%) of the rapid eye movement (REM) and non-rapid eye movement (NREM), etc.

Turning to `Nc1ccc(O)c(C(=O)O)c1` [5-aminosalicylic acid], the “serum FITC-dextran concentration (intestinal permeability)” value in the experiment on DSS-induced mice is listed as “reduce the serum FITC-dextran concentration”.

With `COc1ccc2cc3[n+](cc2c1OC)CCc1cc2c(cc1-3)OCO2` [berberine chloride], the “expression level of CLDN3 gene” value with CLDN3 is “significantly increase”. For the same compound, the “expression level of OCLN gene” value in the experiment with OCLN was “significantly increase”. Besides, the “expression level of TJP1 gene” value in the experiment on TJP1 was “significantly increase”.

Turning to `CN1C(=O)CN=C(c2ccccc2)c2cc(Cl)ccc21` [diazepam], in experiment [1], the “time proportion of the non-rapid eye movement (NREM)” value is “significantly increase the time proportion of the non-rapid eye movement”.
